Laboratory results reported in publication PMC11156899, “High-throughput screening unveils nitazoxanide as a potent PRRSV inhibitor by targeting NMRAL1” (Nature Communications, 2024).
“And” between values parts separate entries of the source, which are not always exact repeats. Equal values may be shown once. Read-outs that look alike come from different tables or passages of the source.

Key:
PRRSV (GSWW-18 strain) = experiment: Anti-PRRSV dose-response (EC50, IFA) in PAM cells; format: cell-based, Porcine Reproductive and Respiratory Syndrome Virus; conditions: Porcine reproductive and respiratory syndrome virus
[1] = test system: Porcine alveolar macrophages (PAM); experiment: in vitro
Procedure: (§1) A concentration-gradient screening strategy was employed for 141 compounds using indirect immunofluorescence assay (IFA). […] Data are mean ± SEM.
(§2) Cells were seeded in 96-well plates and grown in DMEM supplemented with 10% FBS. Upon reaching confluence, compounds were diluted to varying concentrations in 2% FBS-containing medium. Control wells contained DMEM with 0.5% DMSO. Treated cells were incubated at 37 °C in a 5% CO2 humidified environment for 48 or 72 h, followed by cytotoxicity assessment as outlined in our previous work[21]. […]

NMRAL1 = NMRAL1 (Chlorocebus sabaeus, UniProt A0A0D9R9W0); experiment: Surface plasmon resonance, immobilized NMRAL1; format: binding; conditions: SPR
Chain of NMRAL1 (A0A0D9R9W0 entry or part of it): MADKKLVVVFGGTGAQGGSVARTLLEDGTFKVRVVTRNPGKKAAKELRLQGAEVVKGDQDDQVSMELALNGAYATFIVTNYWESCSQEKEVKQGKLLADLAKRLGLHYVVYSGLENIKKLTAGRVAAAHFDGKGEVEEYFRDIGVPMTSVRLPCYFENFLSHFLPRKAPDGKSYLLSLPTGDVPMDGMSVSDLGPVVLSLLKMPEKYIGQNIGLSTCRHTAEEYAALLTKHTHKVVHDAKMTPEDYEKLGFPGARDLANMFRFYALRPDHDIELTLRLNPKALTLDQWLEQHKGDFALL
Procedure: For SPR, the Biacore T200 system (Cytiva) was used to assess binding affinity and kinetics. The Series S Sensor Chip CM5 (BR100530, Cytiva) immobilized 13,000 resonance units (RU) of NMRAL1 (50 μg/ml, pH 4.0, 10 μl/min, 25°C). TIZ (10 to 0.3125 μM) dissolved in a 5% DMSO running buffer (1.05 × HBS-EP+, Cytiva) was applied, with a solvent correction fluid gradient of 4.5–5.8% DMSO. Contact time was set to 120 s for binding and 300 s for dissociation. Post-experiment, data were analyzed using Biacore T200 Evaluation Software 3.0 with Affinity Fit 1:1 Binding model.

NSP12 = experiment: Surface plasmon resonance, NSP12 purified in vitro; format: binding, PRRSV GSWW-18 strain
Excerpt: Supplementary Fig. 10: The Affinity of Nsp1α and Nsp12 with TIZ is Lower Than That of NMRAL1.
(a) The KD value of NMRAL1 obtained through the Affinity fit model.
(b) The KD value of Nsp1α determined using the Kinetics fit model.
(c) The KD value of Nsp1α obtained through the Affinity fit model.
'FT' is the flow-through after passing through the Ni column. 'Ni-200' and 'Ni-500' represent different purification conditions with varying concentrations. 'L2' is the total cell lysate after changing the expression conditions. 'S2' is the supernatant after cell lysis with changed expression conditions. The portions highlighted in red boxes indicate the target protein. […]
constant (KD) between Nsp1α and TIZ is lower than that of NMRAL1. We observe that […]
attempting different systems (Fig. R5 e-h). Although SPR confirms the interaction […]
possibly be attributed to the abnormal protein conformation of NSP12 purified by IBs.
The existing data also indicate that the early addition of NTZ produces a more pronounced antiviral effect (Extended Data Fig. 9), and the overexpression of NMRAL1 can almost negate the antiviral action of NTZ. This leads us to speculate that NMRAL1 may be one of the primary targets of NTZ's mechanism of action, while Nsp1α and NSP12 may serve as secondary targets.
Fig.R5 Validation of the binding between Nsp1α and Nsp12 with TIZ through SPR,

[2] = Pharmacokinetics and tissue distribution of TIZ in swine after oral NTZ; format: in vivo, pig
Procedure: Fig. 4 NTZ inhibition of PRRSV shedding and transmission. a Viral load in blood, and shedding in oronasal and anal swabs. Viral load or shedding in blood and oronasal swabs were quantified from 2 to 4 dpi, and in anal swabs from 2 to 5 dpi. Viral copy numbers for each pig during this period are presented. b NTZ suppression of PRRSV proliferation in blood. 48 h post infection (infected with 1 × 10^5.5 TCID50 of GSWW-18 strain), pigs were orally administered NTZ at 10 mg/kg or 5 mg/kg at 0 h and 12 h, followed by blood collection via anterior vena cava or ear marginal vein. […] Parameters were calculated using a non-compartmental analysis (NCA). Eighteen pigs were evenly divided into three dosage groups (n = 6), each housed separately, fasted for 12 h before the experiment, and monitored by professional veterinarians for welfare and enclosure cleaning to prevent coprophagia. g Tissue distribution of NTZ’s main metabolite TIZ. Tissues were collected as per Method Pharmacokinetics and Tissue Distribution of NTZ, quantifying TIZ content at various times (n = 2). […] Symbols represent three or six independent biological replicates (a, b, f) Scatter plots (a, f) show mean ± SD values of samples, with P-values as indicated, calculated via two-way ANOVA with Dunnett’s multiple-comparison test (a), P-values < 0.0332 were considered significant. […]

[3] = test system: PRRSV GSWW-18 strain in Marc-145 cells; conditions: reason for exclusion before third round
Procedure: Subsequently, a second-round screening of the selected 141 compounds was conducted on Marc-145 cells using immunofluorescence assay (IFA) at four different dosage levels (Fig. 2a; Supplementary Fig. 2).
as §1
(1 picture or pasted object on this page, not shown here)

[4] = Cytotoxicity assay (CC50) in PAM cells; conditions: pig, porcine alveolar macrophages (PAM cells)
Procedure: as §1, §2

PRRSV GSWW-18 strain = experiment: In vivo antiviral effect in swine infected with GSWW-18 strain; set-up: species or system pig
[5] = PAM cells, mean ± SEM, n = 2, unit only on axis title, read-out: EC50
[6] = third round of screening, PAM cells

For `CCC(CC)COC(=O)[C@H](C)N[P@](=O)(OC[C@H]1O[C@@](C#N)(c2ccc3c(N)ncnn23)[C@H](O)[C@@H]1O)Oc1ccccc1` [Remdesivir], which EC50 (PRRSV (GSWW-18 strain); [5]) is on record?
The EC50 was 4990 ± 2370 nM.

What about the “cytotoxicity (in words)” value [1] of the same compound?
Its value is “low cytotoxicity”.

Which results are given for `O=C(Nc1ncc([N+](=O)[O-])s1)c1ccccc1O` [TIZ, Tizoxanide]?
affinity compared between proteins (NMRAL1; NMRAL1 vs NSP1α and NSP12): higher than that of NSP1α and NSP12; Kd (NMRAL1; legend of Fig. 6o, Supplementary Fig. 10a (Affinity fit model)): 4500 nM; Kd (NMRAL1; value printed in Fig. 6o with ka and kd): ~2870 nM and 2870 nM; kon (NMRAL1; read-out: ka): 2380 M⁻¹ s⁻¹; koff (NMRAL1; read-out: kd): 0.00683 s⁻¹; interaction with NSP12 (SPR) (NSP12): weak interaction; tissue distribution ([2]; pig tissues after oral NTZ, n = 2): primarily distributed in small and large intestines, MesLNs, ILNs, but not in high concentrations in lungs; Tmax ([2]; pig, in vivo, po, 25 mg/kg): 2.167 h

With `C[C@H]1O[C@@H](O[C@H]2CC[C@@]3(C)[C@H](CC[C@@H]4[C@@H]3C[C@@H](O)[C@]3(C)[C@@H](C5=CC(=O)OC5)CC[C@]43O)C2)C[C@H](O)[C@@H]1O[C@H]1C[C@H](O)[C@H](O[C@H]2C[C@H](O)[C@H](O[C@@H]3O[C@H](CO)[C@@H](O)[C@H](O)[C@H]3O)[C@@H](C)O2)[C@@H](C)O1` [Deslanoside] as the compound, how does the “cytotoxicity (in words)” value [3] read?
Its value is “high cytotoxicity”.

With `CCN(CCO)CCCC(C)Nc1ccnc2cc(Cl)ccc12` (stereo not shown) [Hydroxychloroquine] as the compound, how does the EC50 (PRRSV (GSWW-18 strain); [5]) read?
The EC50 was 1090 ± 187 nM.

What about the “cytotoxicity (in words)” value [1] of the same compound?
The value was “low cytotoxicity”.

Which results are given for `CN(C)CCCOc1nn(Cc2ccccc2)c2ccccc12` [Benzydamine]?
EC50 (PRRSV (GSWW-18 strain); [5]): 2010 ± 469 nM; cytotoxicity (in words) [1]: low cytotoxicity

What does the source list for `CS(=O)(=O)CCNCc1ccc(-c2ccc3ncnc(Nc4ccc(OCc5cccc(F)c5)c(Cl)c4)c3c2)o1` [Lapatinib]?
EC50 (PRRSV (GSWW-18 strain); [5]): 1770 ± 535 nM; CC50 [4]: 9510 ± 243 nM

Which EC50 (PRRSV (GSWW-18 strain); [5]) does the source give for `CN(Cc1cnc2nc(N)nc(N)c2n1)c1ccc(C(=O)N[C@@H](CCC(=O)O)C(=O)O)cc1` [Methotrexate] here?
Its EC50 is 307 ± 316 nM.

And the CC50 [4]?
Its CC50 is 6830 ± 2250 nM.

With `NC(=O)c1ncn([C@@H]2O[C@H](CO)[C@@H](O)[C@H]2O)n1` [RBV, Ribavirin] as the compound, how does the “viral load and shedding, setting of efficacy” value (PRRSV GSWW-18 strain; blood, oronasal and anal swabs) read?
The value was “effective only in the prophylactic setting”.

And the “efficacy against PRRSV in swine” value (PRRSV GSWW-18 strain; positive control group)?
The value was “appeared to lack efficacy”.

With `COc1c(C)c2c(c(O)c1C/C=C(\C)CCC(=O)O)C(=O)OC2` [Mycophenolic acid] as the compound, how does the EC50 (PRRSV (GSWW-18 strain); [5]) read?
Its EC50 is 305 ± 67 nM.

Which EC50 (PRRSV (GSWW-18 strain)) does the source give for `CC(=O)c1ccc2c(c1)N(CCCN1CCN(CCO)CC1)c1ccccc1S2` [Acetophenazine] here?
Its EC50 is 718 ± 224 nM.

And the “cytotoxicity (in words)” value [1, 6]?
Its value is “low cytotoxicity”.

With `CCN(CC)CCCC(C)Nc1ccnc2cc(Cl)ccc12` (stereo not shown) [Chloroquine] as the compound, how does the EC50 (PRRSV (GSWW-18 strain); [5]) read?
The EC50 was 1520 ± 475 nM.

What about the “cytotoxicity (in words)” value [1, 6] of the same compound?
Its value is “low cytotoxicity”.

Which EC50 (PRRSV (GSWW-18 strain); [5]) does the source give for `Nc1ccn([C@@H]2O[C@H](CO)[C@@H](O)C2(F)F)c(=O)n1` [Gemcitabine] here?
Its EC50 is 109 ± 29 nM.

What does the source list for `CN1CCC(=C2c3ccccc3CCc3sccc32)CC1` [Pizotifen]?
EC50 (PRRSV (GSWW-18 strain); [5]): 541 ± 140 nM; cytotoxicity (in words) [1]: low cytotoxicity

For `CN(C/C=C/C#CC(C)(C)C)Cc1cccc2ccccc12` [Terbinafine], which EC50 (PRRSV (GSWW-18 strain); [5]) is on record?
Its EC50 is 1220 ± 328 nM.

What about the “cytotoxicity (in words)” value [1] of the same compound?
The value was “low cytotoxicity”.
